Measurements reported in US9790221B2, “Heteroaryl compounds as IRAK inhibitors and uses thereof” (Merck Patent GmbH, priority 2014, dated 2017).
Where two headings read alike, the source gives them in different places.

Key:
IRAK4 = IRAK4 (Homo sapiens (Human), UniProt Q9NWZ3); assay: IRAK4 enzymatic assay; format: biochemical
In short: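 Recombinant His-TEV-IRAK4 (20 ng/well) phosphorylating biotinylated STK1 peptide (300 nM) with 2 μM ATP plus [^33P]ATP, 3 h at 30° C in pH 7.0 Hepes buffer with Mg2+ and Mn2+. Compounds 20 µM to 1 nM; EDTA stop, radioactivity captured on streptavidin FlashPlates.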

[1] = system: TLR7 induced IL-6 secretion in human mononuclear cells (PBMC's); assay: TLR7 induced IL-6 in human PBMC's; format: cell-based; details: read-out: TLR7 induced IL-6 secretion in hPBMC's (IC50)
In short: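 Fresh or frozen healthy-donor PBMCs preincubated 30 min at 37° C. with compound (25 uM to 0.4 nM; vehicle 0.25% DMSO) in RPMI/10% HI-FBS. Stimulated with TLR7 ligand (2 uM) for 16-18 h at 37° C.; supernatant IL-6 measured by AlphaLISA.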

[2] = target: IRAK1 (His-TEV-IRAK1 (194-712)) (Homo sapiens (Human), UniProt P51617); assay: IRAK1 enzymatic assay; format: biochemical
In short: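 Recombinant His-TEV-IRAK1 (194-712), 15 ng/well, autophosphorylation with 1 μM ATP plus [33P]ATP, 3 h at 30° C in Hepes pH 7.0 buffer with MgCl2, DTT, EGTA, BSA and Triton; compounds from 20 µM to 1 nM. The reaction was stopped with EDTA, and radioactivity was counted in streptavidin FlashPlates.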

IRAK1 (His-TEV-IRAK1 (194-712)), sequence (P51617 194-712): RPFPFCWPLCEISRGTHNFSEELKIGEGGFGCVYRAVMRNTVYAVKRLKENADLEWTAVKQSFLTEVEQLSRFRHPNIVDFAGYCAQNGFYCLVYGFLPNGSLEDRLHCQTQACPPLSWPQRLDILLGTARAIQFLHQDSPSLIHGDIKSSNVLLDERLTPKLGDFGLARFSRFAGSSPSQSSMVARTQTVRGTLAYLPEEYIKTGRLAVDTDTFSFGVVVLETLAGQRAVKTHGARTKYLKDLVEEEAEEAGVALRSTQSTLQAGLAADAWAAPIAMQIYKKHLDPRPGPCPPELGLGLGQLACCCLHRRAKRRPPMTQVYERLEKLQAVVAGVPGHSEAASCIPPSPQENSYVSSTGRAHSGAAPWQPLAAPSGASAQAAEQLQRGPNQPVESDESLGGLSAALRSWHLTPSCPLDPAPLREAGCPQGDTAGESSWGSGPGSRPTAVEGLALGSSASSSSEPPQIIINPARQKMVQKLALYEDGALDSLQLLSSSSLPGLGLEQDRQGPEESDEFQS
IRAK4, sequence (Q9NWZ3 whole entry): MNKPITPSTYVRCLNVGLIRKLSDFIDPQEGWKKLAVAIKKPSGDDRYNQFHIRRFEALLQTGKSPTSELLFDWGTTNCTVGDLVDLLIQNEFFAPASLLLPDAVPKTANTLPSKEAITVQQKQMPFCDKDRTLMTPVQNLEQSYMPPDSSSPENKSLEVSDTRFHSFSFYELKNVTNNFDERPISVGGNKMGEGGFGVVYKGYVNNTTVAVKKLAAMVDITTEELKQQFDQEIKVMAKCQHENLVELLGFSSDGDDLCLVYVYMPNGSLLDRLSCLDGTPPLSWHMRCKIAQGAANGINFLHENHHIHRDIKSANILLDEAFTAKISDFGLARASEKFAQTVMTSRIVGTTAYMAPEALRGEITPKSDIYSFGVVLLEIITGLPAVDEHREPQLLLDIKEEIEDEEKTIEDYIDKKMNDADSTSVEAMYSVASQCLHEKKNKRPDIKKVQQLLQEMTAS

In the case of `Cn1cc(-c2cccc(-c3ncc(-c4cnn(C)c4)c(NC45CC(CN)(C4)C5)n3)c2)cn1` [Example 242], the IC50 (IRAK4) is reported as < 0.1 µM, the IC50 ([1]; Homo sapiens, PBMC) is reported as 0.1 to 1 µM and the IC50 [2] is reported as 0.1 to 1 µM.
`Cc1nnc(-c2cnc(-c3cccc(-c4cnn(C)c4)c3)nc2NC2CCS(=O)(=O)CC2)s1` [Example 243] was tested, and the IC50 (IRAK4) was < 0.1 µM, the IC50 ([1]; Homo sapiens, PBMC) was 0.1 to 1 µM and the IC50 [2] was 1 to 5 µM.
`Cn1cc(-c2cccc(-c3ncc(-c4cnn(C)c4)c(NC4CCCCC4O)n3)c2)cn1` (stereo not drawn) [Example 244] was tested, and the IC50 (IRAK4) was < 0.1 µM, the IC50 ([1]; Homo sapiens, PBMC) was 0.1 to 1 µM and the IC50 [2] was 0.1 to 1 µM.
`Cn1cc(-c2cccc(-c3ncc(-c4cnn(C)c4)c(NC45CC(CNS(C)(=O)=O)(C4)C5)n3)c2)cn1` [Example 245] was tested, and the IC50 (IRAK4) was < 0.1 µM, the IC50 ([1]; Homo sapiens, PBMC) was 0.1 to 1 µM and the IC50 [2] was < 0.1 µM.
For `Cc1nnc(-c2cnc(-c3cccc(-c4cnn(C)c4)c3)nc2NC2CCCN(S(C)(=O)=O)CC2)s1` (stereo not drawn) [Example 253], the IC50 (IRAK4) was < 0.1 µM, the IC50 ([1]; Homo sapiens, PBMC) was 0.1 to 1 µM and the IC50 [2] was < 0.1 µM.
For `Cc1nnc(-c2cnc(-c3cccc(-c4cnn(C)c4)c3)nc2N[C@H]2CC[C@H](NS(C)(=O)=O)CC2)s1` [Example 254], the IC50 (IRAK4) was < 0.1 µM, the IC50 ([1]; Homo sapiens, PBMC) was < 0.1 µM and the IC50 [2] was < 0.1 µM.
For `CC(=O)NC1(CNc2nc(-c3cccc(-c4cnn(C)c4)c3)ncc2-c2cnn(C)c2)CCCCC1` [Example 256], the IC50 (IRAK4) was < 0.1 µM, the IC50 ([1]; Homo sapiens, PBMC) was 1 to 5 µM and the IC50 [2] was 1 to 5 µM.
With `Cn1cc(-c2cccc(-c3ncc(-c4cnn(C)c4)c(NC4CCS(=O)(=O)CC4)n3)c2)cn1` [Example 257] the IC50 (IRAK4) was < 0.1 µM, the IC50 ([1]; Homo sapiens, PBMC) was 1 to 5 µM and the IC50 [2] was 0.1 to 1 µM.
Compound `CC(C)Nc1nc(-c2cccc(-c3cnn(C)c3)c2)ncc1-c1cnn(C)c1` [Example 260] has an IC50 (IRAK4) of 0.1 to 1 µM, an IC50 ([1]; Homo sapiens, PBMC) of 1 to 5 µM and an IC50 [2] of 0.1 to 1 µM.
With `Cn1cc(-c2cccc(-c3ncc(-c4cnn(C)c4)c(NCC4(NS(C)(=O)=O)CCCCC4)n3)c2)cn1` [Example 262] the IC50 (IRAK4) was < 0.1 µM, the IC50 ([1]; Homo sapiens, PBMC) was 1 to 5 µM and the IC50 [2] was 0.1 to 1 µM.
For `Cn1cc(-c2cccc(-c3ncc(-c4cnn(C)c4)c(N4CCC(CNS(C)(=O)=O)C4)n3)c2)cn1` (stereo not drawn) [Example 265], the IC50 (IRAK4) was < 0.1 µM, the IC50 ([1]; Homo sapiens, PBMC) was > 5 µM and the IC50 [2] was 0.1 to 1 µM.
For `CC(=O)NC12CC(Nc3nc(-c4cccc(-c5cnn(C)c5)c4)ncc3-c3cnn(C)c3)(C1)C2` [Example 266], the IC50 (IRAK4) was < 0.1 µM, the IC50 ([1]; Homo sapiens, PBMC) was 0.1 to 1 µM and the IC50 [2] was < 0.1 µM.
For `Cn1cc(-c2cccc(-c3ncc(-c4cnn(C)c4)c(NCCNS(C)(=O)=O)n3)c2)cn1` [Example 267], the IC50 (IRAK4) was < 0.1 µM, the IC50 ([1]; Homo sapiens, PBMC) was 0.1 to 1 µM and the IC50 [2] was 0.1 to 1 µM.
With `Cn1cc(-c2cccc(-c3ncc(-c4cnn(C)c4)c(N[C@H]4CCC[C@@H](O)[C@H]4O)n3)c2)cn1` [Example 268] the IC50 (IRAK4) was < 0.1 µM, the IC50 ([1]; Homo sapiens, PBMC) was < 0.1 µM and the IC50 [2] was < 0.1 µM.
For `Cn1cc(-c2cccc(-c3ncc(-c4cnn(C)c4)c(NC45CC(N)(C4)C5)n3)c2)cn1` [Example 269], the IC50 (IRAK4) was < 0.1 µM, the IC50 ([1]; Homo sapiens, PBMC) was 0.1 to 1 µM and the IC50 [2] was 0.1 to 1 µM.
In the case of `Cn1cc(-c2cccc(-c3ncc(-c4cnn(C)c4)c(NC45CC(NS(C)(=O)=O)(C4)C5)n3)c2)cn1` [Example 270], the IC50 (IRAK4) is reported as < 0.1 µM, the IC50 ([1]; Homo sapiens, PBMC) is reported as < 0.1 µM and the IC50 [2] is reported as < 0.1 µM.
For `Cn1cc(-c2cccc(-c3ncc(-c4cnn(C)c4)c(NCC(F)(F)F)n3)c2)cn1` [Example 271], the IC50 (IRAK4) was < 0.1 µM, the IC50 ([1]; Homo sapiens, PBMC) was 1 to 5 µM and the IC50 [2] was 0.1 to 1 µM.
With `Cn1cc(-c2cccc(-c3ncc(-c4cnn(C)c4)c(NCC(F)(F)C(F)(F)C(F)(F)F)n3)c2)cn1` [Example 272] the IC50 (IRAK4) was < 0.1 µM, the IC50 [1] was 1 to 5 µM and the IC50 [2] was 0.1 to 1 µM.
For `Cn1cc(-c2cccc(-c3ncc(-c4cnn(C)c4)c(N[C@H]4CC[C@H](O)[C@@H]4O)n3)c2)cn1` [Example 273], the IC50 (IRAK4) was < 0.1 µM, the IC50 ([1]; Homo sapiens, PBMC) was 0.1 to 1 µM and the IC50 [2] was 0.1 to 1 µM.
With `Cn1cc(-c2cccc(-c3ncc(-c4cnn(C)c4)c(NCC(O)C(F)(F)F)n3)c2)cn1` (stereo not drawn) [Example 275] the IC50 (IRAK4) was < 0.1 µM, the IC50 ([1]; Homo sapiens, PBMC) was 0.1 to 1 µM and the IC50 [2] was 0.1 to 1 µM.
`Cn1cc(-c2cccc(-c3ncc(-c4cnn(C)c4)c(N[C@H]4CC[C@H](NS(=O)(=O)C5CC5)CC4)n3)c2)cn1` [Example 276] was tested, and the IC50 (IRAK4) was < 0.1 µM, the IC50 ([1]; Homo sapiens, PBMC) was 0.1 to 1 µM and the IC50 [2] was < 0.1 µM.
